Results taken from patent EP3892265A1, “COMPOSITION FOR SUPPRESSING BLOOD PRESSURE ELEVATION AND METHOD FOR SUPPRESSING BLOOD PRESSURE ELEVATION” (Suntory Holdings Limited, priority 2018, dated 2020).

How the values were obtained:
[1] = system: human umbilical vein endothelial cells (HUVECs, Lonza); experiment: Promotion of nitric oxide (NO) production from vascular endothelial cells, DAF-2 fluorescence; assay type: cell-based; details: 24 hours, relative to control group; for Relative amount of NO released (%) Average: n = 5
Protocol: The effect of xanthohumol (produced by Gifu Shellac Manufacturing Co., Ltd.) in promoting nitric oxide (NO) production from vascular endothelial cells was evaluated by the following procedure.
Specifically, human umbilical vein endothelial cells (HUVECs, Lonza) were treated with xanthohumol for 24 hours, and the amount of nitric oxide (NO) production was measured (n = 5).
HUVECs in a medium (EGM-2, Lonza) were seeded onto a 96-well plate at 10000 cells/0.1 mL/well, and cultured in a CO2 incubator. On the following day, the medium of a xanthohumol-added group was replaced by a medium to which xanthohumol was added; the control group was transferred to a control medium; and the positive control group was transferred to a medium containing positive control (Lovastatin, 10 µM) . Then, these groups were cultured in a CO2 incubator for additional 24 hours.
The medium to which xanthohumol was added was prepared by dissolving xanthohumol in dimethyl sulfoxide (DMSO) and adding the solution to a medium such that the final concentration of xanthohumol was 1 µg/mL, 3 µg/mL, or 10 µg/mL. The control medium was prepared by adding DMSO to a medium to the same concentration as that in the xanthohumol-added group. The medium containing positive control was prepared by adding a solution of lovastatin in DMSO to a medium such that the final concentration of lovastatin (produced by FUJIFILM Wako Pure Chemical Corporation) was 10 µM.
After culturing for 24 hours, diaminofluorescein-2 diacetate (DAF-2, Goryo Chemical, Inc.) was added to each medium to a final concentration of 10 µM, followed by incubation in a CO2 incubator for two hours. Subsequently, the culture supernatant was transferred to a 96-well plate (black plate), and the fluorescence intensity (ex. 495 nm, em. 515 nm) was measured. The fluorescence intensity relative to the fluorescence intensity of the control group was determined as the relative amount of NO released. Significant difference was tested between the groups (control group vs. xanthohumol-added group) by Student's t-test (significant level: p < 0.05). […]

[2] = molecular target: T1, angiotensin-converting enzyme (ACE) (Homo sapiens, UniProt P12821); experiment: ACE inhibitory activity measured with ACE Kit-WST (Dojindo Laboratories); assay type: biochemical; details: n = 4
T1 construct: purchased Dojindo Laboratories
T1 sequence (P12821 30-1306, species assumed): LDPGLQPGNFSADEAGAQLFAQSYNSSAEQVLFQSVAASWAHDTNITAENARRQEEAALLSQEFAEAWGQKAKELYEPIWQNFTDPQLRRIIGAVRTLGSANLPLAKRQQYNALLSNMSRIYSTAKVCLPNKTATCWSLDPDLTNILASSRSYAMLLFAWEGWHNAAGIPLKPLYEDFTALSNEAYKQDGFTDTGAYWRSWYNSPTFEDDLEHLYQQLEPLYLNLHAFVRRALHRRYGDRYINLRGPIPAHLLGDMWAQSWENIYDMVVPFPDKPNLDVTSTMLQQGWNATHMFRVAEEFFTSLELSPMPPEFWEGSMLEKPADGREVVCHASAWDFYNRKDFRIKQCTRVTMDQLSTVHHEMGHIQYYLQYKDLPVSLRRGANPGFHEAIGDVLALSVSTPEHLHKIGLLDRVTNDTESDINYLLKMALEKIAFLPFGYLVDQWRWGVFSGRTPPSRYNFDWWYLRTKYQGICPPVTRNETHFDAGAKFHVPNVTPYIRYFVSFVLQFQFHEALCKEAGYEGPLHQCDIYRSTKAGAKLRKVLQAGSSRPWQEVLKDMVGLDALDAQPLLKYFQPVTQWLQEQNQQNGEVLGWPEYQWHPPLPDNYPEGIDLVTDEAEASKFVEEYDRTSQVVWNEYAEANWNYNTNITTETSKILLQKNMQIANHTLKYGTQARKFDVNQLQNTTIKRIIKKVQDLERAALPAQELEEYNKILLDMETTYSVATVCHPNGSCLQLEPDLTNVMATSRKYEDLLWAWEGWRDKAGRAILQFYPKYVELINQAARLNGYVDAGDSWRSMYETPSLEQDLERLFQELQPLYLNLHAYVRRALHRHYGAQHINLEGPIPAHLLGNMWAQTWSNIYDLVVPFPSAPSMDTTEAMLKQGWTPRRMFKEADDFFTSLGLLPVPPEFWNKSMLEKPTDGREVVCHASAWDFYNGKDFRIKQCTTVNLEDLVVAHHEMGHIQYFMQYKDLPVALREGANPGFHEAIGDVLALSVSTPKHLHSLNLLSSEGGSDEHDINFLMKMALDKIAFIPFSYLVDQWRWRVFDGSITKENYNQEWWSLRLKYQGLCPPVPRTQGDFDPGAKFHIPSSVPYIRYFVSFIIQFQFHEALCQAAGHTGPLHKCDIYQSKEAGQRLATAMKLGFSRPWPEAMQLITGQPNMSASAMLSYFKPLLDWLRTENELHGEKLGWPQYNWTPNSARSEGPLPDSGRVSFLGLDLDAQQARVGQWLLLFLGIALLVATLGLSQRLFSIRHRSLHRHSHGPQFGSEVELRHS
Protocol: The angiotensin-converting enzyme (ACE) inhibitory effect of xanthohumol was evaluated by the following procedure.
Specifically, the ACE inhibitory activity was measured for the case where xanthohumol (produced by Gifu Shellac Manufacturing Co., Ltd.) was added as a test substance (n = 4 per level), using an ACE Kit-WST (Dojindo Laboratories) according to the instructions accompanying the kit.
A level with addition of distilled water instead of xanthohumol was set as a control group.
A level with no addition of xanthohumol which was measured in an ACE (enzyme)-free reaction system was set as an enzyme-free group.
The ACE inhibitory activity (%) of the test substance was calculated using the following formula 1. Significant difference was tested between the groups (control group vs. test substance-added group) by Student's t-test (significant level: p < 0.05). ACE inhibitory activity(%); = 100 × ((absorbanceat450nmofcontrolgroup)−; (absorbance at 450 nm in test substance−added; group))/((absorbanceat450nmofcontrolgroup)−; (absorbanceat450nmofenzyme-freegroup)) [formula]

[3] = Xanthohumol concentration 3 µg/mL
[4] = Xanthohumol concentration 10 µg/mL

inhibition at 3 µg/mL [2, 3] [%]	inhibition at 10 µg/mL [2, 4] [%]	inhibition at 30 µg/mL ([2]; Xanthohumol concentration 30 µg/mL) [%]	Compound	relative amount of NO released ([1]; Lovastatin 10 µM, average ± standard error) [%]	Relative amount of NO released (%) Average ([1]; Xanthohumol concentration 1 µg/mL) [%]	Relative amount of NO released (%) Average [1, 3] [%]	Relative amount of NO released (%) Average [1, 4] [%]
			CC[C@H](C)C(=O)O[C@H]1C[C@@H](C)C=C2C=C[C@H](C)[C@H](CC[C@@H]3C[C@@H](O)CC(=O)O3)[C@H]21 [positive control, Lovastatin, reference compound]	122.8 ± 2.7			
3.33	15.8	19.5	COc1cc(O)c(CC=C(C)C)c(O)c1C(=O)/C=C/c1ccc(O)cc1 [Xanthohumol]		108.3	124.8	147.5
